Here are results for 17 compounds from US7626031B2, “Substituted 3-(diarylmethylene)indolin-2-ones and methods of their use” (Symphony Evolution, Inc., priority 2002, dated 2009).

The target in test [1] is T1, KDR (baculovirus expressed human KDR kinase domain D807-V1356) (Homo sapiens, UniProt P35968).
T1 construct: human KDR kinase domain D807-V1356; host or cells: baculovirus expression system
Description: biochemical. Here is the method: (§1) Kinase activity and compound inhibition are investigated using one or more assay formats. The ATP concentrations for each assay are selected to be close to the Michaelis-Menten constant (KM) for each individual kinase. Dose-response experiments are performed at 10 different inhibitor concentrations in a 384-well plate format. […] Exemplary kinase assays are described below. KDR Assay
KDR biochemical activity was assessed using a Luciferase-Coupled Chemiluminescent Kinase assay (LCCA) format. Kinase activity was measured as the percent ATP remaining following the kinase reaction. Remaining ATP was detected by luciferase-luciferin-coupled chemiluminescence. […] The mixture is incubated at ambient temperature for 4 hours after which 20 uL luciferase-luciferin mix is added and the chemiluminescent signal read using a Wallac Victor^2 reader.

A further test deals with EphA2 (Homo sapiens, UniProt P29317). As to the kind of experiment: Kinase assay, EphA2 (33P-ATP incorporation or luciferase-coupled ATP consumption). The test is classed as biochemical. On the procedure:
(§2) Kinase assays were performed by measurement of incorporation of γ-^33P ATP into immobilized myelin basic protein (MBP). […] Plates were washed 3× with 100 μl TBS. […] Compound dilutions were performed in DMSO and added to assay wells to a final DMSO concentration of 1%. Each data point was measured in duplicate, and at least two duplicate assays were performed for each individual compound determination. Enzyme was added to final concentrations of 10 nM or 20 nM, for example. A mixture of unlabeled ATP and γ-^33P ATP was added to start the reaction (2×10^6 cpm of γ-^33P ATP per well (3000 Ci/mmole) and either 10 μM or 30 μM unlabeled ATP, typically. The reactions were carried out for 1 hour at room temperature with shaking. Plates were washed 7× with TBS, followed by the addition of 50 μl/well scintillation fluid (Wallac). Plates were read using a Wallac Trilux counter. This is only one format of such assays, various other formats are possible, as known to one of ordinary skill in the art.
(§3) Tyrosine kinase activity is determined by 1) measurement of kinase-dependent ATP consumption by in the presence of a generic substrate such as, polyglutamic acid, tyrosine, 4:1 (pEY), by luciferase/luciferin-mediated chemiluminescence or; 2) incorporation of radioactive phosphate derived from ^33P-ATP into a generic substrate which has been adsorbed onto the well surface of polystyrene microtiter plates. Phosphorylated substrate products are quantified by scintillation spectrometry.
as §1

For the next test, the target named is FGFR1 (Homo sapiens, UniProt P11362). As to the kind of experiment: Kinase assay, FGFR1 (33P-ATP incorporation or luciferase-coupled ATP consumption). The test is classed as biochemical. Here is the method:
as §2, §3, §1

The target of the next test is PDGFR alpha (Homo sapiens, UniProt P16234). As to the kind of experiment: Kinase assay, PDGFR alpha (33P-ATP incorporation or luciferase-coupled ATP consumption). The test is classed as biochemical. To be noted: read-out: PDGF-R-A IC50. On the procedure:
as §2, §3, §1

A further test concerns the target Fyn (Homo sapiens, UniProt P06241). As to the kind of experiment: Kinase assay, Fyn. The format is biochemical. Here is the method:
as §1

The target of another test is IRK (Homo sapiens, UniProt P06213). Description: Kinase assay, IRK. The test is classed as biochemical. Here is the method:
as §1

Another test concerns the target EGFR (Homo sapiens, UniProt P00533). As to the kind of experiment: Kinase assay, EGFR (33P-ATP incorporation or luciferase-coupled ATP consumption). The test is classed as biochemical. Here is the method:
as §2, §3, §1

Sequence of FGFR1 (P11362 22-822, species assumed): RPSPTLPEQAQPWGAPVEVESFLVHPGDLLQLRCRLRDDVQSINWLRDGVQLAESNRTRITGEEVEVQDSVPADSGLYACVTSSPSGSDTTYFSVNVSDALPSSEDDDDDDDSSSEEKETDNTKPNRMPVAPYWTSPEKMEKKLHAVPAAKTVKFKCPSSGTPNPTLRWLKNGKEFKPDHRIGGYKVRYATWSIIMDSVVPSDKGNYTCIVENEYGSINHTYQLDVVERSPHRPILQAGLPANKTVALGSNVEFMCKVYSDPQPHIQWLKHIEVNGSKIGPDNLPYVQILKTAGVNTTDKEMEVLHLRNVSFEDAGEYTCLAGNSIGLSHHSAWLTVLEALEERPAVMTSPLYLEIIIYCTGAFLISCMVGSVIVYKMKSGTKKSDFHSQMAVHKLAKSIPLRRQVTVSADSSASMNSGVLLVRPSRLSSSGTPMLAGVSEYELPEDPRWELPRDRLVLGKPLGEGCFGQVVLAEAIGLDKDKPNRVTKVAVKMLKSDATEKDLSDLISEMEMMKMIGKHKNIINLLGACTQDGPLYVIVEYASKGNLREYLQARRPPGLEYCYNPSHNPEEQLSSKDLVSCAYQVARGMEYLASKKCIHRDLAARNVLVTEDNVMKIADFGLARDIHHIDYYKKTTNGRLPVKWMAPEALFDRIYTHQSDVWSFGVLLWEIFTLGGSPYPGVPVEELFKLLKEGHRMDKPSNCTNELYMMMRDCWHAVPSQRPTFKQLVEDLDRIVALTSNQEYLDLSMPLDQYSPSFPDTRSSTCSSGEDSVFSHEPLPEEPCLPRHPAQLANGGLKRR
T1 sequence (P35968 807-1356): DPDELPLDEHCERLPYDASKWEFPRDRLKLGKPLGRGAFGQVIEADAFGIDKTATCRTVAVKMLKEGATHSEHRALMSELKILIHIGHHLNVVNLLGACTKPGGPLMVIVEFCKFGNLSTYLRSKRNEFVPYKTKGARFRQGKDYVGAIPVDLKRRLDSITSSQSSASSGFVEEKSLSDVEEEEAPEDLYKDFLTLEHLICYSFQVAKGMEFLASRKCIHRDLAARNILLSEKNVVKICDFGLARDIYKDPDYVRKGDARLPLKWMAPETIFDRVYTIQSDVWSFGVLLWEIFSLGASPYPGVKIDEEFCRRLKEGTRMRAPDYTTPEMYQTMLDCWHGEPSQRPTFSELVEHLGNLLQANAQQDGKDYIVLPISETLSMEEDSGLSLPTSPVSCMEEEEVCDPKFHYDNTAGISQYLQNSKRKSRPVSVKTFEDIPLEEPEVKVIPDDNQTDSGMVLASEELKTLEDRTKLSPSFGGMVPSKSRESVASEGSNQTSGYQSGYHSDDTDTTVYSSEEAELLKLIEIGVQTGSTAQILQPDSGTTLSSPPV
Sequence of IRK (P06213 28-1382): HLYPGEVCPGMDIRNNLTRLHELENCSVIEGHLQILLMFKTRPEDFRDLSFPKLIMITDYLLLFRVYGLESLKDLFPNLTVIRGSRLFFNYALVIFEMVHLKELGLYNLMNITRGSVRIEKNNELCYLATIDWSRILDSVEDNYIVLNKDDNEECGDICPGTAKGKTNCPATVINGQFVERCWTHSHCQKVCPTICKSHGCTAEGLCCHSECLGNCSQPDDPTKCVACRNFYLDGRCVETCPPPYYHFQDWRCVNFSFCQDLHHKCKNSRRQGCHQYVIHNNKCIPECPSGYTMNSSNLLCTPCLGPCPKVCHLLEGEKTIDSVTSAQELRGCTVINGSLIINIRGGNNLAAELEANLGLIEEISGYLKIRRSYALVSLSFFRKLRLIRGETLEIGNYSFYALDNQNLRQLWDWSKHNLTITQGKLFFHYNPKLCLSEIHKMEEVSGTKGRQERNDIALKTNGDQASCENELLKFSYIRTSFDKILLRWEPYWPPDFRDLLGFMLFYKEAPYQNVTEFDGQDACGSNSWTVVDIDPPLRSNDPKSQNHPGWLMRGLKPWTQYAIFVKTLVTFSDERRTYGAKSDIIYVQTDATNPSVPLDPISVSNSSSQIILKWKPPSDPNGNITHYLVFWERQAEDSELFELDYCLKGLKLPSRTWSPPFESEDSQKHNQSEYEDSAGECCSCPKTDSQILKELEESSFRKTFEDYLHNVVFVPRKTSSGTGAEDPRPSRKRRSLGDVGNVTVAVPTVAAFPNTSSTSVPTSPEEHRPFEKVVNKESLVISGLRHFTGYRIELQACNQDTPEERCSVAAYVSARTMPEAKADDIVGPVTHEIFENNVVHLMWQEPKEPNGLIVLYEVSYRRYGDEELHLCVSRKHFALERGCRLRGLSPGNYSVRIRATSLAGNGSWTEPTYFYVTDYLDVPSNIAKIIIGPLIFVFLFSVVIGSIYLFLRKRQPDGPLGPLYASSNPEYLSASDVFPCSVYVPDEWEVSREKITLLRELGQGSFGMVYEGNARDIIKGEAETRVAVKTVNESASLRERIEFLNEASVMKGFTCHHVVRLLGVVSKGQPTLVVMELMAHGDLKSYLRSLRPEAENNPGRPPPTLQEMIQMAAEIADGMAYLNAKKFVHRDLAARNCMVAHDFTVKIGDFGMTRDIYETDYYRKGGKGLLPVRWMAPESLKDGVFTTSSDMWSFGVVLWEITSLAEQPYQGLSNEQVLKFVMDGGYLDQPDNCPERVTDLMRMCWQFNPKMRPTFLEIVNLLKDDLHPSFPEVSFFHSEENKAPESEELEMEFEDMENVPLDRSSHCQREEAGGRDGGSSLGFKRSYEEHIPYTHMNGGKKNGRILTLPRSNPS
Sequence of EGFR (P00533 25-1210, species assumed): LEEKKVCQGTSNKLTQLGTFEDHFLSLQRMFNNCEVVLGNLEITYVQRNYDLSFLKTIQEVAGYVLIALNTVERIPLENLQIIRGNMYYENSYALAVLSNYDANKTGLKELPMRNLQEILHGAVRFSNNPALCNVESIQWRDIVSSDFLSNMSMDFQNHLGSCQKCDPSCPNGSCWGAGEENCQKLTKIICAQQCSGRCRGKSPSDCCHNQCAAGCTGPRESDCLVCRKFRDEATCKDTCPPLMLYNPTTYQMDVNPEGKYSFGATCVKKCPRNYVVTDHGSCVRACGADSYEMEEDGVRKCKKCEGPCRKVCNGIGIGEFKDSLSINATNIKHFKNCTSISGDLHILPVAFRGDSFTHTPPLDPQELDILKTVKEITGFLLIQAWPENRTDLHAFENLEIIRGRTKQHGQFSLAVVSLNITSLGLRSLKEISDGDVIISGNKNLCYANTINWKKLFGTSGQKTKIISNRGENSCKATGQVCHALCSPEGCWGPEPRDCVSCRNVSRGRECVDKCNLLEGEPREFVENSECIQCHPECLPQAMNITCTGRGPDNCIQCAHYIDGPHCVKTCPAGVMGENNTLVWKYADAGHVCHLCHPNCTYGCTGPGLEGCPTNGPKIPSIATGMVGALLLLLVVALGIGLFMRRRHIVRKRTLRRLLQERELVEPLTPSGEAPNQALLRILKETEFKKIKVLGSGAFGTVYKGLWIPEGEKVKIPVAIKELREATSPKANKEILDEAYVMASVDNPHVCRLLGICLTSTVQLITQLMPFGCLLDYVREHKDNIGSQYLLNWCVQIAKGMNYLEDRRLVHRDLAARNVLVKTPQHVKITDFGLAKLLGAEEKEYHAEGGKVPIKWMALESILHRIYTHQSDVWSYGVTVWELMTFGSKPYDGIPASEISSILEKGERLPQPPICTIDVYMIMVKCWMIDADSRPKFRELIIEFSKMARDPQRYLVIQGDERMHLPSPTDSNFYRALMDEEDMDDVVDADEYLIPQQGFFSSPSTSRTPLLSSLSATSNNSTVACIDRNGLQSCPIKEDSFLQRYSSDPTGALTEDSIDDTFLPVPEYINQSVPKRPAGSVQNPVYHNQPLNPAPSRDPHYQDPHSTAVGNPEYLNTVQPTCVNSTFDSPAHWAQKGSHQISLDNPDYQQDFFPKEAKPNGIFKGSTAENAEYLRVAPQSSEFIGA
Sequence of PDGFR alpha (P16234 24-1089): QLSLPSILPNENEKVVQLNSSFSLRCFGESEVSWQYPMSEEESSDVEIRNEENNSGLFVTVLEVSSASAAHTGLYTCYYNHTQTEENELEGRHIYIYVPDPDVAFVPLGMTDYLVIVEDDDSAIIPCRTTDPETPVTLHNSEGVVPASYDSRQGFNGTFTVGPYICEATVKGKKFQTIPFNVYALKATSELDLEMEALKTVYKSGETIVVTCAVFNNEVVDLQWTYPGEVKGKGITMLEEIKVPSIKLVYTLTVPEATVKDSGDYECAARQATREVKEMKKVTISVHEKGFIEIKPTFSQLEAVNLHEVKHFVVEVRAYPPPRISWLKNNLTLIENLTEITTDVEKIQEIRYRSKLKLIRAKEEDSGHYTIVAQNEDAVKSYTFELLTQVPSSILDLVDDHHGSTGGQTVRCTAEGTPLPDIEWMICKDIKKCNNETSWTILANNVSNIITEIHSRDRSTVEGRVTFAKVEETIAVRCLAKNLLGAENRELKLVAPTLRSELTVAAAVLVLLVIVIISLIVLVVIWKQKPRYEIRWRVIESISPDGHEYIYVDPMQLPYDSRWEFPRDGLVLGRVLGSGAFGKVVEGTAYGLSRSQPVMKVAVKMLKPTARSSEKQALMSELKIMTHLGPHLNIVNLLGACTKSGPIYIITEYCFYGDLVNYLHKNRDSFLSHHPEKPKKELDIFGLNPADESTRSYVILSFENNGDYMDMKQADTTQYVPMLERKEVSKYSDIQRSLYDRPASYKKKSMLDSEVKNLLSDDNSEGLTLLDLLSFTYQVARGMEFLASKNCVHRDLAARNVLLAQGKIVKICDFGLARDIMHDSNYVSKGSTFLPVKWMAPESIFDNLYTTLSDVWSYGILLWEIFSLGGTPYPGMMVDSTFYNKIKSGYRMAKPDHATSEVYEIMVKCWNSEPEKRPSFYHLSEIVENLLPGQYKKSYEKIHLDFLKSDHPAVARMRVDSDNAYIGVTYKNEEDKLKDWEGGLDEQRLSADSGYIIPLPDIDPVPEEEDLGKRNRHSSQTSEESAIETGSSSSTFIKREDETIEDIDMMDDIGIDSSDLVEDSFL

For the compound `CCN1CCC(Nc2ccc3c(c2)/C(=C(\c2cc(F)cc(F)c2)c2nc4cc(Cl)ccc4[nH]2)C(=O)N3)CC1` [Entry 56, (3Z)-3-[(5-chloro-1H-benzimidazol-2-yl) (3,5-dilfuorophenyl)methylidene]-5-[(1-ethylpiperidin-4-yl)amino]-1,3-dihydro-2H-indol-2-one], the IC50 (commonly the concentration that inhibits the measured activity by half) in test [1] was < 50 nM; against EphA2, 500 to 5000 nM; on FGFR1 it was 50 to 500 nM; at PDGFR alpha it was < 50 nM; against Fyn, < 50 nM; on IRK it was > 5000 nM.
As for `CCN1CCCC(Nc2ccc3c(c2)/C(=C(\c2ccccc2)c2nc4cc(OC)ccc4[nH]2)C(=O)N3)C1` (stereo not shown) [Entry 2, (3Z)-5-[(1-ethylpiperidin-3-yl)amino]-3-[[5-(methyloxy)-1H-benzimidazol-2-yl](phenyl)methylidene]-1,3-dihydro-2H-indol-2-one], the IC50 against EphA2, on EGFR and at Fyn was 500 to 5000 nM in each case.
As for `COCCN1CCC(Nc2ccc3c(c2)/C(=C(\c2ccc(C)cc2)c2nc(C)c[nH]2)C(=O)N3)CC1` [Entry 77, (3Z)-3-[(4-methyl-1H-imidazol-2-yl)(4-methylphenyl)methylidene]-5-({1-[2-(methyloxy)ethyl]piperidin-4-yl}amino)-1,3-dihydro-2H-indol-2-one], the IC50 in test [1] is < 50 nM; on EphA2, 50 to 500 nM; at EGFR it was 50 to 500 nM; against FGFR1, < 50 nM; on PDGFR alpha, < 50 nM; against Fyn, < 50 nM. On IRK, the IC50 was 500 to 5000 nM.
Take `CCN1CCC(Oc2ccc3c(c2)/C(=C(\c2ccccc2)c2nc4cc(OC)ccc4[nH]2)C(=O)N3)CC1` [Entry 14, (3Z)-5-[(1-ethytpiperidin-4-yl)oxy]-3-[[5-(methyloxy)-1H-benzimidazol-2-yl](phenyl)methylidene]-1,3-dihydro-2H-indol-2-one]: the IC50 is 500 to 5000 nM against EphA2, 500 to 5000 nM against EGFR, < 50 nM at Fyn and 500 to 5000 nM at IRK.
`COCCN1CCC(Nc2ccc3c(c2)/C(=C(\c2ccc(C(F)(F)F)nc2)c2ncc[nH]2)C(=O)N3)CC1` [Entry 98]: the IC50 in test [1] was 50 to 500 nM; at EphA2 it was 500 to 5000 nM; at EGFR, > 5000 nM; against FGFR1, 50 to 500 nM; on Fyn it was 50 to 500 nM; against IRK it was > 5000 nM.
`COCCN1CCC(Nc2ccc3c(c2)/C(=C(\c2cccc(F)c2)c2ncn[nH]2)C(=O)N3)CC1` [Entry 87]: the IC50 is 50 to 500 nM in test [1]; > 5000 nM against EphA2; > 5000 nM against EGFR; 50 to 500 nM against FGFR1; 50 to 500 nM on PDGFR alpha; > 5000 nM at Fyn. The concentration for half-maximal inhibition (IC50) against IRK is > 5000 nM.
Consider `COCCN1CCC(Nc2ccc3c(c2)/C(=C(\c2ccc(F)cc2)c2ncc[nH]2)C(=O)N3)CC1` [Entry 78], for which the IC50 in test [1] is < 50 nM; at EphA2, 500 to 5000 nM; against EGFR, > 5000 nM; at FGFR1, 50 to 500 nM; on PDGFR alpha, < 50 nM; at Fyn, 50 to 500 nM. Moreover, the IC50 at IRK was > 5000 nM.
For the compound `CCN1CCC(Nc2ccc3c(c2)/C(=C(\c2ccc(F)c(C)c2)c2nc4ccccc4[nH]2)C(=O)N3)CC1` [Entry 52, (3Z)-3-[1H-benzimidazol-2-yl(4-fluoro-3-methylphenyl)methylidene]-5-{(1-ethylpiperidin-4-yl)amino]-1,3-dihydro-2H-indol-2-one], the IC50 in test [1] was < 50 nM; on EphA2, 500 to 5000 nM; at FGFR1, 50 to 500 nM; at PDGFR alpha it was < 50 nM; against Fyn it was < 50 nM; at IRK it was 500 to 5000 nM.
As for `COCCN1CCC(Nc2ccc3c(c2)/C(=C(\c2ccc(Cl)cc2)c2ncc[nH]2)C(=O)N3)CC1` [Entry 91, (3Z)-3-[(4-chlorophenyl)(1H-imidazol-2-yl)methylidene]-5-({1-[2-(methyloxy)ethyl]piperidin-4-yl}amino)-1,3-dihydro-2H-indol-2-one], the IC50 was < 50 nM in test [1]; 500 to 5000 nM against EphA2; > 5000 nM against EGFR; < 50 nM at FGFR1; < 50 nM at PDGFR alpha; < 50 nM against Fyn. The compound further showed an IC50 at IRK of 500 to 5000 nM.
Turning to `COCCN1CCC(Nc2ccc3c(c2)/C(=C(\c2ccccc2)c2ncc[nH]2)C(=O)N3)CC1` [Entry 89], the IC50 in test [1] is < 50 nM; against EphA2, 500 to 5000 nM; on EGFR it was > 5000 nM; against FGFR1, < 50 nM; on PDGFR alpha it was < 50 nM; at Fyn, < 50 nM. At IRK, this compound came in with an IC50 of 500 to 5000 nM.
For the compound `COCCN1CCC(Nc2ccc3c(c2)/C(=C(\c2ccc(C(F)(F)F)c(F)c2)c2ncc[nH]2)C(=O)N3)CC1` [Entry 92], the IC50 in test [1] is < 50 nM; at EphA2, 500 to 5000 nM; against EGFR, > 5000 nM; against FGFR1 it was 50 to 500 nM; on PDGFR alpha, < 50 nM; on Fyn, 50 to 500 nM. Moreover, the IC50 on IRK is > 5000 nM.
`CCN1CCC(Nc2ccc3c(c2)/C(=C(\c2cccc(F)c2)c2nc(-c4ccccc4)c[nH]2)C(=O)N3)CC1` [Entry 95, (3Z)-5-[(1-ethylpiperidin-4-yl)amino]-3-[(3-fluorophenyl)(4-phenyl-1H-imidazol-2-yl)methylidene]-1,3-dihydro-2H-indol-2-one]: the IC50 was < 50 nM in test [1]; 500 to 5000 nM against EphA2; 50 to 500 nM against EGFR; < 50 nM on FGFR1; < 50 nM against Fyn; 500 to 5000 nM on IRK.
On to `CCN1CCC(Nc2ccc3c(c2)/C(=C(\c2ccccc2)c2nc4cc(Cl)ccc4[nH]2)C(=O)N3)CC1` [Entry 55, (3Z)-3-[(5-chloro-1H-benzimidazol-2-yl)(phenyl)methylidene]-5-[(1-ethylpiperidin-4-yl)amino]-1,3-dihydro-2H-indol-2-one], for which the IC50 in test [1] was < 50 nM; at EphA2, 500 to 5000 nM; against FGFR1, 50 to 500 nM; on PDGFR alpha it was < 50 nM; against Fyn, < 50 nM; against IRK, 500 to 5000 nM.
On to `CCN1CCC(Nc2ccc3c(c2)/C(=C(\c2cccc(F)c2)c2ncn[nH]2)C(=O)N3)CC1` [Entry 99, (3Z)-5-[(1-ethylpiperidin-4-yl)amino]-3-[(3-fluorophenyl)(1H-1,2,4-triazol-5-yl)methylidene]-1,3-dihydro-2H-indol-2-one], for which the IC50 in test [1] was 50 to 500 nM; at EphA2, > 5000 nM; at EGFR it was > 5000 nM; against FGFR1, 50 to 500 nM; on Fyn, > 5000 nM; against IRK, > 5000 nM.
On to `CS(=O)(=O)N1CCC(Nc2ccc3c(c2)/C(=C(\c2cccc(F)c2)c2ncc[nH]2)C(=O)N3)CC1` [Entry 93, (3Z)-3-[(3-fluorophenyl)(1H-imidazol-2-yl)methylidene]-5-{[1-(methylsulfonyl)piperidin-4-yl]amino}-1,3-dihydro-2H-indol-2-one], for which the IC50 in test [1] was 50 to 500 nM; on EphA2 it was > 5000 nM; at EGFR, > 5000 nM; against FGFR1, 50 to 500 nM; on Fyn, > 5000 nM; against IRK, 500 to 5000 nM.
Take `CCCc1ccc(/C(=C2/C(=O)Nc3ccc(NC4CCN(CCOC)CC4)cc32)c2ncc[nH]2)cc1` [Entry 94, (3Z)-3-[1H-imidazol-2-yl(4-propylphenyl)methylidene]-5-({1-[2-(methyloxy)ethyl]piperidin-4-yl}amino)-1,3-dihydro-2H-indol-2-one]: the IC50 in test [1] is < 50 nM; at EphA2, 500 to 5000 nM; on EGFR, 50 to 500 nM; at FGFR1, < 50 nM; on Fyn it was < 50 nM; at IRK it was 500 to 5000 nM.
As for `COCCN1CCC(Nc2ccc3c(c2)/C(=C(\c2cccc(F)c2)c2nc(-c4ccccc4)c[nH]2)C(=O)N3)CC1` [Entry 96, (3Z)-3-[(3-fluorophenyl)(4-phenyl-1H-imidazol-2-yl)methylidene]-5-({1-[2-(methyloxy)ethyl]piperidin-4-yl}amino)-1,3-dihydro-2H-indol-2-one], the IC50 was < 50 nM in test [1]; 500 to 5000 nM against EphA2; 50 to 500 nM against EGFR; < 50 nM against FGFR1; < 50 nM against Fyn; 500 to 5000 nM on IRK.
